Data set [1] in a line: Human hepatocyte intrinsic clearance. Type of data set: in vitro ADME. To be noted: for CLint scaled at 1 μM / hepatocyte CLint at 1 μM: human, hepatocytes. The method, then: Incubations were performed in 0.5 million hepatocytes cells/mL at 1 μM concentration of test compound in duplicate with rat, human, dog, monkey, or mouse hepatocytes, and the concentration-time course of test compound depletion was determined after withdrawing samples from the incubation at assay time points followed by liquid chromatography with tandem mass spectrometry analysis. An organic solvent was used to terminate incubations.
(§1) These available known AO substrates along with the test compounds were analyzed using three in vitro systems (pooled human liver cytosol, liver S-9 fractions and human hepatocytes isolated from livers perfused with HTK media). Scaled unbound intrinsic clearances were calculated for the test compounds/new chemical entities and were compared to the in vivo unbound intrinsic clearances of the known AO substrates.

The nature of data set [2]: Human liver cytosol intrinsic clearance. The class given is in vitro ADME. The following applies: for CLint scaled at 1 μM / microsomal CLint at 1 μM: human, cytosol. Here is the method: (§2) Incubations were performed in 1 mg/mL human liver cytosol with high aldehyde oxidase (AO)/xanthine oxidase (XO) activity or 2.5 mg/mL human liver S-9 fraction with high AO/XO activity at 1 μM concentration of test compound in duplicate, and the concentration-time course of test compound depletion was determined after withdrawing samples from the incubation at assay time points followed by liquid chromatography with tandem mass spectrometry analysis. An organic solvent was used to terminate incubations.
as §1

Data set [3] can be described thus: Human liver S-9 intrinsic clearance. The class given is in vitro ADME. The following applies: for Human Liver S-9 Intrinsic Clearance _1 / Human Liver S-9 Intrinsic Clearance _2: 2.5 mg/mL S-9, 1 μM; for CLint scaled at 1 μM / microsomal CLint at 1 μM: human; for CLint scaled at 1 μM: s9. Here is the method:
as §2, §1

For data set [4] the following is noted: known AO substrates, human, literature; cited from earlier work.
Where [5] appears, read: 1 mg/mL cytosol, 1 μM, replicate 1.
[6] abbreviates: 1 mg/mL cytosol, 1 μM, replicate 2.
Where [7] appears, read: Human Liver Cytosol Intrinsic Clearance _1.
Setting [8] is: Human Liver Cytosol Intrinsic Clearance _2.
[9] abbreviates: raw data, AO calibration set, read-out: Human Hepatocytes Intrinsic Clearance.
The mark [10] stands for this setting: scaled data, read-out: Human Hepatocytes in vitro scaled Intrinsic Clearance.
The mark [11] stands for this setting: 1 mg/mL cytosol, 1 μM, replicate 1, read-out: Human Liver Cytosol Intrinsic Clearance _1.
[12] abbreviates: 1 mg/mL cytosol, 1 μM, replicate 2, read-out: Human Liver Cytosol Intrinsic Clearance _2.
[13] abbreviates: scaled data, read-out: Human Liver Cytosol in vitro scaled Intrinsic Clearance.
The mark [14] stands for this setting: s9, 2.5 mg/mL S-9, 1 μM, replicate 1, read-out: Human Liver S-9 Intrinsic Clearance _1.
Setting [15] is: s9, 2.5 mg/mL S-9, 1 μM, replicate 2, read-out: Human Liver S-9 Intrinsic Clearance _2.
Where [16] appears, read: scaled data, read-out: Human Liver S-9 in vitro scaled Intrinsic Clearance.

Each structure is given as a SMILES string. Where two headings read alike, the source gives them in different places.

As to `Nc1nc(OCc2ccccc2)c2nc[nH]c2n1` [O6-benzylguanine], the “Human Hepatocytes Intrinsic Clearance” value in data set [1] (raw data, AO calibration set) came out at 13.6 μL/min/10^6 cells. In addition, the “Human Hepatocytes in vitro scaled Intrinsic Clearance” value in data set [1] (scaled data) is 34.6 mL/min/kg. Moreover, the “Human Liver Cytosol Intrinsic Clearance _1” value in data set [2] (setting [5]) is recorded as 5.6 μL/min/mg protein. In data set [2] (setting [6]), the “Human Liver Cytosol Intrinsic Clearance _2” value came out at 4.9 μL/min/mg protein. In addition, the “Human Liver Cytosol in vitro scaled Intrinsic Clearance” value in data set [2] (scaled data) was 10.7 mL/min/kg. Moreover, in data set [3] (replicate 1), the “Human Liver S-9 Intrinsic Clearance _1” value was found to be 6.66 μL/min/mg protein. Moreover, the “Human Liver S-9 Intrinsic Clearance _2” value in data set [3] (replicate 2) stood at 5.97 μL/min/mg protein. Besides, the “Human Liver S-9 in vitro scaled Intrinsic Clearance” value in data set [3] (scaled data) is 19.5 mL/min/kg. The “Estimated Free in vivo Intrinsic Clearance (Ref)” value (shortened to “Estimated Free”) in data set [4] is recorded as 360.
As for `[2H]c1nc2cccnc2n1Cc1cc(OC)c2c(c1)O[C@H](C)[C@@H](c1ccc(OC)nc1)O2` [Compound 5, 3-(((2R,3R)-8-methoxy-2-(6-methoxypyridin-3-yl)-3-methyl-2,3-dihydrobenzo[b][1,4]dioxin-6-yl)methyl)-3H-imidazo[4,5-b]pyridine-2-d], the CLint scaled at 1 μM was 19.7 mL/min/kg in data set [1], 2.2 mL/min/kg in data set [2] and 3.6 mL/min/kg in data set [3]. Also, in data set [1], the hepatocyte CLint at 1 μM was found to be 7.74 µL/min/1e6 cells. Besides, the microsomal CLint at 1 μM is 0.7 µL/min/mg in data set [2] (setting [7]); 1.4 µL/min/mg in data set [2] (setting [8]); below 1.1 µL/min/mg in data set [3] (s9, Human Liver S-9 Intrinsic Clearance _1); below 1.1 µL/min/mg in data set [3] (s9, Human Liver S-9 Intrinsic Clearance _2).
For the compound `[2H]c1ccc2nc([2H])n(Cc3cc(OC)c4c(c3)O[C@@H](C)[C@H](c3ccc(OC)nc3)O4)c2n1` (racemic) [Compound 2, (+/−)-3-(((trans)-8-methoxy-2-(6-methoxypyridin-3-yl)-3-methyl-2,3-dihydrobenzo[b][1,4]dioxin-6-yl)methyl)-3H-imidazo[4,5-b]pyridine-2,5-d2], the CLint scaled at 1 μM in data set [1] came to 16.2 mL/min/kg; in data set [2], 4.3 mL/min/kg. This compound registered a hepatocyte CLint at 1 μM in data set [1] of 6.36 µL/min/1e6 cells. Further, the microsomal CLint at 1 μM in data set [2] (setting [7]) is 1.5 µL/min/mg; in data set [2] (setting [8]), 1.7 µL/min/mg.
`CC[C@H]1OC(=O)[C@H](C)C(=O)[C@H](C)[C@@H](O[C@@H]2O[C@H](C)C[C@H](N(C)C)[C@H]2O)[C@](C)(OC)C[C@@H](C)C(=O)[C@H](C)[C@H]2N(C3CN([C@H](C)c4ccnc5ncccc45)C3)C(=O)O[C@]12C` [PF-945863]: the “Human Hepatocytes Intrinsic Clearance” value in data set [1] (raw data, AO calibration set) was 10.7 μL/min/10^6 cells. Moreover, in data set [1] (scaled data), the “Human Hepatocytes in vitro scaled Intrinsic Clearance” value came to 27.2 mL/min/kg. Further, the “Human Liver Cytosol Intrinsic Clearance _1” value in data set [2] (setting [5]) was determined as 8.2 μL/min/mg protein. In data set [2] (setting [6]), the “Human Liver Cytosol Intrinsic Clearance _2” value turned out to be 6.9 μL/min/mg protein. Moreover, the “Human Liver Cytosol in vitro scaled Intrinsic Clearance” value in data set [2] (scaled data) was 15.4 mL/min/kg. Moreover, the “Human Liver S-9 Intrinsic Clearance _1” value in data set [3] (replicate 1) worked out at 6.78 μL/min/mg protein. Moreover, the “Human Liver S-9 Intrinsic Clearance _2” value in data set [3] (replicate 2) turned out to be 6.22 μL/min/mg protein. Besides, the “Human Liver S-9 in vitro scaled Intrinsic Clearance” value in data set [3] (scaled data) was found to be 20.1 mL/min/kg. In data set [4], the “Estimated Free” value was 170.
With `[2H]c1ccc2ncn(Cc3cc(OC)c4c(c3)O[C@@H](C)[C@H](c3ccc(OC)nc3)O4)c2n1` (racemic) [Compound 1, (+/−)-3-(((trans)-8-methoxy-2-(6-methoxypyridin-3-yl)-3-methyl-2,3-dihydrobenzo[b][1,4]dioxin-6-yl)methyl)-3H-imidazo[4,5-b]pyridine-5-d], the CLint scaled at 1 μM in data set [1] is 26.2 mL/min/kg; in data set [2] it was 6.9 mL/min/kg. Also, the hepatocyte CLint at 1 μM in data set [1] came to 10.3 µL/min/1e6 cells. For the same compound, the microsomal CLint at 1 μM in data set [2] (setting [7]) stood at 3.4 µL/min/mg; in data set [2] (setting [8]), 3.3 µL/min/mg.
Regarding `CN(Cc1cnc2nc(N)nc(N)c2n1)c1ccc(C(=O)N[C@@H](CCC(=O)O)C(=O)O)cc1` [methotrexate], the “Human Hepatocytes Intrinsic Clearance” value in data set [1] (raw data, AO calibration set) is below 2.7 μL/min/10^6 cells. Moreover, in data set [1] (scaled data), the “Human Hepatocytes in vitro scaled Intrinsic Clearance” value was below 6.9 mL/min/kg. The “Human Liver Cytosol Intrinsic Clearance _1” value in data set [2] (setting [5]) is recorded as below 0.7 μL/min/mg protein. Besides, in data set [2] (setting [6]), the “Human Liver Cytosol Intrinsic Clearance _2” value is below 0.7 μL/min/mg protein. Also, the “Human Liver Cytosol in vitro scaled Intrinsic Clearance” value in data set [2] (scaled data) is below 1.5 mL/min/kg. Further, in data set [3] (replicate 1), the “Human Liver S-9 Intrinsic Clearance _1” value is on record as below 1.1 μL/min/mg protein. For the same compound, the “Human Liver S-9 Intrinsic Clearance _2” value in data set [3] (replicate 2) is below 1.1 μL/min/mg protein. Moreover, in data set [3] (scaled data), the “Human Liver S-9 in vitro scaled Intrinsic Clearance” value was below 3.4 mL/min/kg. Besides, the “Estimated Free” value in data set [4] is 0.44.
Turning to `[2H]c1nc2cccnc2n1C([2H])([2H])c1cc(OC)c2c(c1)O[C@@H](C)[C@H](c1ccc(OC)nc1)O2` (racemic) [Compound 4, (+/−)-3-(((trans)-8-methoxy-2-(6-methoxypyridin-3-yl)-3-methyl-2,3-dihydrobenzo[b][1,4]dioxin-6-yl)methyl-d2)-3H-imidazo[4,5-b]pyridine-2-d], the CLint scaled at 1 μM turned out to be 19 mL/min/kg in data set [1] and 3.4 mL/min/kg in data set [2]. The hepatocyte CLint at 1 μM in data set [1] is 7.45 µL/min/1e6 cells. For the same compound, the microsomal CLint at 1 μM in data set [2] (setting [7]) worked out at 1.2 µL/min/mg; in data set [2] (setting [8]), 2.1 µL/min/mg.
`CN(C)CCNC(=O)c1cccc2cc3ccccc3nc12` [DACA]: in data set [1] (raw data, AO calibration set), the “Human Hepatocytes Intrinsic Clearance” value worked out at 49.1 μL/min/10^6 cells. The “Human Hepatocytes in vitro scaled Intrinsic Clearance” value in data set [1] (scaled data) was found to be 125 mL/min/kg. For the same compound, the “Human Liver Cytosol Intrinsic Clearance _1” value in data set [2] (setting [5]) worked out at 46.2 μL/min/mg protein. Besides, the “Human Liver Cytosol Intrinsic Clearance _2” value in data set [2] (setting [6]) was 46.8 μL/min/mg protein. The “Human Liver Cytosol in vitro scaled Intrinsic Clearance” value in data set [2] (scaled data) came to 96.5 mL/min/kg. The “Human Liver S-9 Intrinsic Clearance _1” value in data set [3] (replicate 1) is given as 19.0 μL/min/mg protein. Besides, the “Human Liver S-9 Intrinsic Clearance _2” value in data set [3] (replicate 2) came out at 17.7 μL/min/mg protein. The “Human Liver S-9 in vitro scaled Intrinsic Clearance” value in data set [3] (scaled data) is 56.5 mL/min/kg. Further, the “Estimated Free” value in data set [4] is given as 3600.
As to `CCNC(=O)OC1CCN(c2nncc3cc(OC)c(OC)cc23)CC1` [carbazeran], the “Estimated Free” value in data set [4] was 13000.
Take `CCN(C(C)=O)c1cccc(-c2ccnc3c(C#N)cnn23)c1` [zaleplon]: in data set [1] (setting [9]), the hepatocyte CLint at 1 μM amounted to 7.53 µL/min/1e6 cells. For the same compound, the CLint scaled at 1 μM was found to be 19.2 mL/min/kg in data set [1] (setting [10]), 6 mL/min/kg in data set [2] (setting [13]) and 7.1 mL/min/kg in data set [3] (setting [16]). The microsomal CLint at 1 μM came to 3.1 µL/min/mg in data set [2] (setting [11]), 3.4 µL/min/mg in data set [2] (setting [12]), 2.11 µL/min/mg in data set [3] (setting [14]) and 3.32 µL/min/mg in data set [3] (setting [15]). For the same compound, the “Estimated Free” value in data set [4] was 65.
As to `N=C(N)NC(=O)c1cnn(-c2cccc3ncccc23)c1C1CC1` [zoniporide], the CLint scaled at 1 μM in data set [1] came to 33.8 mL/min/kg; in data set [2] it was 12.4 mL/min/kg; in data set [3], 18.6 mL/min/kg. Moreover, the hepatocyte CLint at 1 μM in data set [1] was determined as 13.3 µL/min/1e6 cells. In addition, in data set [4], the “Estimated Free” value is given as 180.
As for `OCCn1cc(-c2cnc3nnn(Cc4ccc5ncccc5c4)c3n2)cn1` [PF-4217903], the hepatocyte CLint at 1 μM in data set [1] (setting [9]) came to 4.08 µL/min/1e6 cells. For the same compound, the CLint scaled at 1 μM in data set [1] (setting [10]) was 10.4 mL/min/kg; in data set [2] (setting [13]), below 1.5 mL/min/kg; in data set [3] (setting [16]) it was below 3.4 mL/min/kg. The microsomal CLint at 1 μM in data set [2] (setting [11]) is below 0.7 µL/min/mg; in data set [2] (setting [12]), below 0.7 µL/min/mg; in data set [3] (setting [14]), below 1.1 µL/min/mg; in data set [3] (setting [15]), below 1.1 µL/min/mg. Moreover, the “Estimated Free” value in data set [4] is on record as 46.

Source of the values: patent publication US11530216B2, “Deuterated colony stimulating factor-1 receptor (CSF-1R) inhibitors” (Genzyme Corporation, priority 2020, dated 2022).
